Measurements taken from patent publication US20230212180A1, “SUBSTITUTED PYRAZINE COMPOUND, PHARMACEUTICAL COMPOSITION COMPRISING SAME, AND USE THEREOF” (Sichuan Kelun-Biotech Biopharmaceutical Co., Ltd., priority 2020, published 2023).
Like-named read-outs stand apart in the source and are kept apart here.

How the values were obtained:
CYP1A2 = molecular target: T1, CYP1A2 (Homo sapiens, UniProt P05177); assay: Biochemical assay for CYP enzyme inhibition, P450-Glo CYP1A2 Screening System; assay type: in vitro ADME
T1 construct: purchased Promega
T1 sequence (P05177 1-516): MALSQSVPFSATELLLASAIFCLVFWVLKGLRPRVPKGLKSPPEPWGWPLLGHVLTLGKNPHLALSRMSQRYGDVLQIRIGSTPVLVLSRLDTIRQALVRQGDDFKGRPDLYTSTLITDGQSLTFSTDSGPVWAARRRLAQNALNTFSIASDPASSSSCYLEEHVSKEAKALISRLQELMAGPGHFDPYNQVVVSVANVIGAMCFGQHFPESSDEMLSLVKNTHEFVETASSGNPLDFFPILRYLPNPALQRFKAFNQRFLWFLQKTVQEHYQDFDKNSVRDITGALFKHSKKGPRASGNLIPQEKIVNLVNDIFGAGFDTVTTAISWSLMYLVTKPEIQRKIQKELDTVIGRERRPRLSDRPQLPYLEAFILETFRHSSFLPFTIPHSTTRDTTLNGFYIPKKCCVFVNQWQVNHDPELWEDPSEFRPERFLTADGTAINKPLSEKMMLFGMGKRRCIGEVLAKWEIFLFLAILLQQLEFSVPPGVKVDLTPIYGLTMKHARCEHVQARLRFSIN
Description: (§1) Test Example 5: Biochemical Assay for CYP Enzyme (Cytochrome P450) Inhibition
P450-Glo™ CYP1A2 Screening System, (Promega);
(§2) BMG PHERAstar FS Luminescent.
(§3) The experiments were carried out separately according to the instructions of the kits. The steps were as follows:
3.1. Inhibition Against CYP1A2:
(§4) Test group: The test compounds at different concentrations were added into a microplate, and Luciferin-ME (100 μM), K3PO4 (100 mM), and CYP1A2 (0.01 μmol/μL) were added into each well, and pre-incubated at room temperature for 10 min. Thereafter, an NADPH regeneration system was added. The mixture was reacted at room temperature for 30 min. Finally, an equal volume of detection buffer was added and incubated at room temperature for 20 min, followed by chemiluminescence detection.
(§5) Negative control group: The experimental method for the negative control group was the same as that for the test group, except that the test compound was not added.
Blank control group: The experimental method for the blank control group was the same as that for the test group, except that the test compound was not added and that CYP1A2 was replaced with CYP1A2 Membrance (0.01 μmol/μL).
(§6) Percentage inhibition=(1−(the chemiluminescent signal value of the test compound group at a certain test concentration−the chemiluminescent signal value of the blank control group)/(the chemiluminescent signal value of the negative control group−the chemiluminescent signal value of the blank control group))×100%.
(§7) When the percentage inhibition was between 30% and 80%, a single value or a value range of the half maximal inhibitory concentration (IC50) of the compound against the CYP enzyme was estimated based on the following equation: IC50=X×(1−percentage inhibition)/percentage inhibition, wherein X was the test concentration of the compound.

CYP2D6 = molecular target: T2, CYP2D6 (Homo sapiens, UniProt P10635); assay: Biochemical assay for CYP enzyme inhibition, P450-Glo CYP2D6 Screening System; assay type: in vitro ADME
T2 construct: purchased Promega
T2 sequence (P10635 whole entry): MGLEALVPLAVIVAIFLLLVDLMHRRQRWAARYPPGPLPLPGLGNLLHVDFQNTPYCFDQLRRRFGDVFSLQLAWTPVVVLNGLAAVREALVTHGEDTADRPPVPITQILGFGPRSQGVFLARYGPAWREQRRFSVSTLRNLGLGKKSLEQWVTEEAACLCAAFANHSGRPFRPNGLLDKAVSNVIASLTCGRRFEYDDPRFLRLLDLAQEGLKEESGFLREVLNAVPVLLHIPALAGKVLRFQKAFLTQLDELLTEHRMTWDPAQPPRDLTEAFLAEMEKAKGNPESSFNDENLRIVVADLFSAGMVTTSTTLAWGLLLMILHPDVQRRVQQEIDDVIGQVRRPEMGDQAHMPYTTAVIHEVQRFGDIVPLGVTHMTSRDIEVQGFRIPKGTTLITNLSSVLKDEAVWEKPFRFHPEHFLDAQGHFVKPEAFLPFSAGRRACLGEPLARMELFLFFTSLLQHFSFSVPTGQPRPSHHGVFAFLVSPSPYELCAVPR
Description: as §1
P450-Glo™ CYP2D6 Screening System, (Promega);
as §2, §3
3.2. Inhibition Against CYP2D6:
as §4, with “and Luciferin-ME EGE (3 μM), K3PO4” for “and Luciferin-ME (100 μM), K3PO4”, “mM), and CYP2D6 (5 nM) were added” for “mM), and CYP1A2 (0.01 μmol/μL) were added”, “reacted at 37° C. for 30” for “reacted at room temperature for 30”
as §5
Blank control group: The experimental method for the blank control group was the same as that for the test group, except that the test compound was not added and that CYP2D6 was replaced with CYP2D6 Membrance (5 nM).
as §6, §7

[1] = system: NCI-H358 cell (human non-small cell lung cancer cell); assay: Inhibition of the proliferation activity of NCI-H358 cell (CellTiter-Glo); assay type: cell-based; details: 120 h, 5 days
Description: Test Example 4: Experiment on the Inhibition of the Proliferation Activity of NCI-H358 Cell (Human Non-Small Cell Lung Cancer Cell)
cell: NCI-H358 (Nanjing CoBioer);
kit: CellTiter-Glo® Luminescent Cell Viability Assay Kit (Promega).
inoculation amount of cell: 1500 cells/well;
incubation conditions for compounds: 37° C., 5% CO2;
incubation duration: 5 days;
detecting temperature: room temperature;
chemiluminescence detection using the BMG PHERAstar FS reader.
Cells were cultured in a medium containing 10% fetal bovine serum under the culture conditions of 37° C. and 5% CO2. An appropriate amount of cells were plated into a 96-well plate and cultured overnight in an incubator to allow the cells to adhere to the wall. The following day, the medium was removed and a complete medium containing a pre-diluted compound was added and incubated at 37° C. for 5 days. On the fifth day, the detection reagent CellTiter-Glo® was added into each well. Chemiluminescence was adopted to detect the relative luminescence units (RLUs) of the wells.
The result of a well containing cell-free medium, treated with CellTiter-Glo®, was obtained as the blank value. Cell viability (%)=(sample RLU−blank RLU)/(vehicle RLU−blank RLU)×100%, and maximum inhibition rate (%)=100%−cell viabilitymax. conc. (%). The half maximal inhibitory concentration (IC50) of the compound was calculated by fitting the curve according to the four-parameter logistic model.

hERG = molecular target: T3, hERG (Homo sapiens, UniProt Q12809); assay: Biochemical assay for hERG inhibition (Predictor hERG Fluorescence Polarization Assay Kit); assay type: binding
T3 construct: purchased ThermoFisher
T3 sequence (Q12809 whole entry): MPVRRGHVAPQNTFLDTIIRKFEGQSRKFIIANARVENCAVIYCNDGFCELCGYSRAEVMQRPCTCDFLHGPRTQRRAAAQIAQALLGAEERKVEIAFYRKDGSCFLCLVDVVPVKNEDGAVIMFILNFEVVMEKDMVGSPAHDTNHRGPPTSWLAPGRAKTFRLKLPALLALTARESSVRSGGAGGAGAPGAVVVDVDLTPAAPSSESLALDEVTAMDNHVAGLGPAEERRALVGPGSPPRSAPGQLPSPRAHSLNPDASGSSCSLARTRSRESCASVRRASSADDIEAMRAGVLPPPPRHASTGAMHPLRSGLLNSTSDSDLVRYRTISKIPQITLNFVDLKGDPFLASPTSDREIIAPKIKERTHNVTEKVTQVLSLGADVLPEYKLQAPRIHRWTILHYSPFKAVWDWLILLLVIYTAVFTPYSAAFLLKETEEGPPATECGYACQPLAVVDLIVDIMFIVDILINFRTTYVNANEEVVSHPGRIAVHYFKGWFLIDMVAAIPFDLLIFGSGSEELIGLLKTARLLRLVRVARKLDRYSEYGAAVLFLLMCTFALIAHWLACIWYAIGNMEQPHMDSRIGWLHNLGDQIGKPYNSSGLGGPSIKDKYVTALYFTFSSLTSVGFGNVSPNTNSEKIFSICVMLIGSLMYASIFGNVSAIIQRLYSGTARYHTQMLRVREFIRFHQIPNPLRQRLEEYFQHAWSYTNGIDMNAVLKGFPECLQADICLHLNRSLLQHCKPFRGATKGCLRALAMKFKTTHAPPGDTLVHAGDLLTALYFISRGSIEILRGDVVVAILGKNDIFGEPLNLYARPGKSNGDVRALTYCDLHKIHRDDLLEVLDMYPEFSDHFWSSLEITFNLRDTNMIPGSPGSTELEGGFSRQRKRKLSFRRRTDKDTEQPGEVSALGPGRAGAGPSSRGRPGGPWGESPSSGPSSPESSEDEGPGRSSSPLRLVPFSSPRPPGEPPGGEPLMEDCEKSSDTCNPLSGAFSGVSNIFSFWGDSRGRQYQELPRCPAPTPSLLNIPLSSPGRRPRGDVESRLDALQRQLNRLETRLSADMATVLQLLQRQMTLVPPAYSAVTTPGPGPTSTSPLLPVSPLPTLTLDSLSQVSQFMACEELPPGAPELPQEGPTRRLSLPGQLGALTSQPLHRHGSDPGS
Description: Test Example 3: Biochemical Assay for hERG Inhibition
kit: Predictor™ hERG Fluorescence Polarization Assay Kit (ThermoFisher) containing:
Compound E4031 as a positive control;
tracer concentration: 1 nM;
incubation duration: 2 hours;
parameters for microplate reader: BMG PHERAstar FS fluorescence microplate reader.
Test group: The test compounds at different concentrations were added into a microplate containing hERG cell membrane, and the tracer with a high affinity for hERG was then added into each well. The microplate was incubated at 25° C. for 2 hours before detection of the change in fluorescence polarization value (mP) (excitation wavelength: 540 nm; emission wavelength: 590 nm) using a multi-mode microplate reader.
Positive control group: The experimental method for the positive control group was the same as that for the test group, except that the test compound was replaced with 30 μM Compound E4031.
Blank control group: The experimental method for the blank control group was the same as that for the test group, except that the test compound was replaced with the hERG buffer and that the hERG cell membrane was not added.
Based on the data ratios, the percentage inhibition (%) of the compounds of the present disclosure against hERG at different concentrations was calculated and the range of the half maximal inhibitory concentration (IC50) of the compounds was determined. Percentage inhibition (%)=(1−(mP of the test compound−mP of the positive control group)/(mP of the blank control group−mP of the positive control group))×100%.

[2] = estimated from percentage inhibition, read-out: IC50 (μM) CYP2D6
[3] = estimated from percentage inhibition, read-out: IC50 (μM) CYP1A2

IC50 (CYP1A2; [3]) | Structure (SMILES) | IC50 (CYP1A2) | IC50 (CYP2D6) | IC50 [1] | IC50 (hERG) | IC50 (CYP2D6; [2])
– | Cc1nc(N2CCC3(CC2)CO[C@@H](C)[C@H]3N)c(CO)nc1Sc1ccnc(N2CCCC2CO)c1Cl (some centres unmarked) [Example 1] | > 10 µM | > 10 µM | – | – | –
– | C[C@@H]1OCC2(CCN(c3ncc(Sc4ccnc(N5CCCC5CO)c4Cl)nc3CO)CC2)[C@@H]1N (some centres unmarked) [Example 2] | > 10 µM | – | 0.04 µM | > 10 µM | > 10 µM
– | C[C@@H]1OCC2(CCN(c3ncc(Sc4ccnc(N5CC(CC#N)C5)c4Cl)nc3CO)CC2)[C@@H]1N [Example 5, 2-(1-(4-(5-((3S,4S)-4-amino-3-methyl-2-oxa-8-azaspiro[4.5]decan-8-yl)-6-(hydroxymethyl)pyrazin-2-ylthio)-3-chloropyridin-2-yl)azetidin-3-yl)acetonitrile] | > 10 µM | > 10 µM | 0.034 µM | – | –
– | C[C@@H]1OCC2(CCN(c3ncc(Sc4ccnc(N5CC(CO)C5)c4Cl)nc3CO)CC2)[C@@H]1N [Example 6, (3-((3S,4S)-4-amino-3-methyl-2-oxa-8-azaspiro[4.5]decan-8-yl)-6-(3-chloro-2-(3-(hydroxymethyl)azetidin-1-yl)pyridin-4-ylthio)pyrazin-2-yl)methanol] | > 10 µM | > 10 µM | 0.074 µM | – | –
– | C[C@@H]1OCC2(CCN(c3ncc(Sc4ccnc(N5CC(C(C)(C)O)C5)c4Cl)nc3CO)CC2)[C@@H]1N [Example 12, 2-(1-(4-(5-((3S,4S)-4-amino-3-methyl-2-oxa-8-azaspiro[4.5]decan-8-yl)-6-(hydroxymethyl)pyrazin-2-ylthio)-3-chloropyridin-2-yl)azetidin-3-yl)propan-2-ol] | > 10 µM | > 10 µM | 0.018 µM | > 10 µM | –
– | CC(C)(O)C1CN(c2nccc(Sc3cnc(N4CCC5(CC4)COC[C@H]5N)c(CO)n3)c2Cl)C1 [Example 13, (S)-2-(1-(4-(5-(4-amino-2-oxa-8-azaspiro[4.5]decan-8-yl)-6-(hydroxymethyl)pyrazin-2-ylthio)-3-chloropyridin-2-yl)azetidin-3-yl)propan-2-ol] | > 10 µM | – | 0.26 µM | > 10 µM | > 10 µM
– | C[C@@H]1OCC2(CCN(c3ncc(Sc4ccnc(NCC5(O)CC5)c4Cl)nc3CO)CC2)[C@@H]1N [Example 15, 1-((4-(5-((3S,4S)-4-amino-3-methyl-2-oxa-8-azaspiro[4.5]decan-8-yl)-6-(hydroxymethyl)pyrazin-2-ylthio)-3-chloropyridin-2-ylamino)methyl)cyclopropan-1-ol] | > 10 µM | > 10 µM | 0.04 µM | > 10 µM | –
– | CC(O)C1CN(c2nccc(Sc3cnc(N4CCC5(CC4)CO[C@@H](C)[C@H]5N)c(CO)n3)c2Cl)C1 (stereo partly drawn) [Example 17, 1-(1-(4-(5-((3S,4S)-4-amino-3-methyl-2-oxa-8-azaspiro[4.5]decan-8-yl)-6-(hydroxymethyl)pyrazin-2-ylthio)-3-chloropyridin-2-yl)azetidin-3-yl)ethan-1-ol] | > 10 µM | > 10 µM | 0.039 µM | – | –
– | C[C@@H]1OCC2(CCN(c3ncc(Sc4ccnc(N5CCCC5CC(N)=O)c4Cl)nc3CO)CC2)[C@@H]1N (stereo partly drawn) [Example 19, 2-(1-(4-(5-((3S,4S)-4-amino-3-methyl-2-oxa-8-azaspiro[4.5]decan-8-yl)-6-(hydroxymethyl)pyrazin-2-ylthio)-3-chloropyridin-2-yl)pyrrolidin-2-yl)acetamide] | > 10 µM | – | 0.22 µM | > 10 µM | > 10 µM
– | COCC1CN(c2nccc(Sc3cnc(N4CCC5(CC4)CO[C@@H](C)[C@H]5N)c(CO)n3)c2Cl)C1 [Example 21, (3-((3S,4S)-4-amino-3-methyl-2-oxa-8-azaspiro[4.5]decan-8-yl)-6-(3-chloro-2-(3-(methoxymethyl)azetidin-1-yl)pyridin-4-ylthio)pyrazin-2-yl)methanol] | > 10 µM | > 10 µM | 0.03 µM | – | –
> 10 µM | CC(C)(O)C1CN(c2nccc(Sc3cnc(N4CCC5(CC4)Oc4ccccc4[C@H]5N)c(CO)n3)c2Cl)C1 [Example 22, (R)-2-(1-(4-(5-(3-amino-3H-spiro[benzofuran-2,4′-piperidin]-1′-yl)-6-(hydroxymethyl)pyrazin-2-ylthio)-3-chloropyridin-2-yl)azetidin-3-yl)propan-2-ol] | – | – | 0.031 µM | – | > 10 µM
> 10 µM | CC(C)(O)C1CN(c2nccc(Sc3cnc(N4CCC5(CC4)Cc4ccccc4[C@H]5N)c(CO)n3)c2Cl)C1 [Example 23, (S)-2-(1-(4-(5-(1-amino-1,3-dihydrospiro[indene-2,4′-piperidin]-1′-yl)-6-(hydroxymethyl)pyrazin-2-ylthio)-3-chloropyridin-2-yl)azetidin-3-yl)propan-2-ol] | – | – | 0.005 µM | – | > 10 µM
– | Cc1nc(N2CCC3(CC2)CO[C@@H](C)[C@H]3N)c(CO)nc1Sc1ccnc(N2CC(CS(C)(=O)=O)C2)c1Cl [Example 25, (3-((3S,4S)-4-amino-3-methyl-2-oxa-8-azaspiro[4.5]decan-8-yl)-6-(3-chloro-2-(3-(methylsulfonylmethyl)azetidin-1-yl)pyridin-4-ylthio)-5-methylpyrazin-2-yl)methanol] | > 10 µM | > 10 µM | 0.15 µM | > 10 µM | –
> 10 µM | CC(C)(O)C1CN(c2nccc(Sc3cnc(N4CCC5(CC4)Cc4ncccc4[C@H]5N)c(CO)n3)c2Cl)C1 [Example 43, (S)-2-(1-(4-(5-(5-amino-5,7-dihydrospiro[cyclopenta[b]pyridine-6,4′-piperidin]-1′-yl)-6-(hydroxymethyl)pyrazin-2-ylthio)-3-chloropyridin-2-yl)azetidin-3-yl)propan-2-ol] | – | – | 0.008 µM | – | > 10 µM
